In patent US7262199B2, “Tyrosine kinase inhibitors” (Merck & Co., Inc., priority 2002, dated 2007):

melting point: 147 to 149 °C
Compound: c1ccc(-c2cnn3cc(-c4ccc(CCCN5CCOCC5)cc4)cnc23)cc1 [Compound 2-6, 6-[4-(3-morpholin-4-ylpropyl)phenyl]-3-phenylpyrazolo[1,5-a]pyrimidine]
